For this assay, the system named is CD2F1 mice, L1210 leukemia ip, survival T/C. Put plainly: NCI In Vivo Anticancer Drug Screen. Data for tumor model L1210 Leukemia (intraperitoneal) in CD2F1 (CDF1) mice. The note with it: higher = longer survival. In outline:
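Ratio T/C, where T is the treated-group value and C the vehicle-dosed control value, from mice implanted with a transplantable tumor.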

Where [1] appears, read: endpoint: mean survival time, dose: 6.25 mg/kg/injection, schedule: Q01DX009 (ip), vehicle: saline with Tween-80.
[2] abbreviates: endpoint: mean survival time, dose: 12.5 mg/kg/injection, schedule: Q01DX009 (ip), vehicle: saline with Tween-80.
Setting [3] is: endpoint: mean survival time, dose: 25.0 mg/kg/injection, schedule: Q01DX009 (ip), vehicle: saline with Tween-80.
Where [4] appears, read: endpoint: mean survival time, dose: 50.0 mg/kg/injection, schedule: Q01DX009 (ip), vehicle: saline with Tween-80.
Where [5] appears, read: endpoint: mean survival time, dose: 100.0 mg/kg/injection, schedule: Q01DX009 (ip), vehicle: saline with Tween-80.
Setting [6] is: endpoint: mean survival time, dose: 200.0 mg/kg/injection, schedule: Q01DX009 (ip), vehicle: saline with Tween-80.
The mark [7] stands for this setting: endpoint: mean survival time, dose: 100.0 mg/kg/injection, schedule: Q04DX003 (ip), vehicle: saline with Tween-80.

Data on 14 molecules can be found in PubChem BioAssay AID256 (DTP/NCI, 2004).

Each structure is given as a SMILES string. Several values for one entry are separate records, joined by “and”; a condition that tells them apart may be missing. Identical values can stand only once. Toxic doses and inconclusive results are not listed.

For the molecule `CCCC(=O)Nc1ncnc2c1[nH]c(=O)n2C1OC2COP(=O)(O)OC2C1OC(=O)CCC` (stereo not drawn), the T/C is 97 % of control (endpoint: mean survival time, dose: 6.25 mg/kg/injection, schedule: Q01DX005 (ip), vehicle: water); 93 % of control (endpoint: mean survival time, dose: 12.5 mg/kg/injection, schedule: Q01DX005 (ip), vehicle: water); 97 % of control (endpoint: mean survival time, dose: 25.0 mg/kg/injection, schedule: Q01DX005 (ip), vehicle: water); 97 % of control (endpoint: mean survival time, dose: 50.0 mg/kg/injection, schedule: Q01DX005 (ip), vehicle: water); 89 % of control (endpoint: mean survival time, dose: 100.0 mg/kg/injection, schedule: Q01DX005 (ip), vehicle: water).

Consider `N#CC1(C#N)OC(C#N)(C#N)C2C1C=CC1C2C1(C#N)C#N` (stereo not drawn), for which the T/C is 108 % of control (endpoint: mean survival time, dose: 6.25 mg/kg/injection, schedule: Q01DX001 (ip), vehicle: saline with Tween-80); 97 % of control (endpoint: mean survival time, dose: 12.5 mg/kg/injection, schedule: Q01DX001 (ip), vehicle: saline with Tween-80); 97 % of control (endpoint: mean survival time, dose: 25.0 mg/kg/injection, schedule: Q01DX001 (ip), vehicle: saline with Tween-80).

Consider `COc1cc2c(cc1OC)C(OC)N(C)c1c-2ccc2cc3c(cc12)OCO3` (stereo not drawn), for which the T/C (endpoint: mean survival time, dose: 3.13 mg/kg/injection, schedule: Q01DX009 (ip), vehicle: water) was 117 % of control; the T/C (endpoint: mean survival time, dose: 6.25 mg/kg/injection, schedule: Q01DX009 (ip), vehicle: water) was 121 % of control; the T/C (endpoint: mean survival time, dose: 12.5 mg/kg/injection, schedule: Q01DX009 (ip), vehicle: water) was 123 % of control; the T/C (endpoint: mean survival time, dose: 25.0 mg/kg/injection, schedule: Q01DX009 (ip), vehicle: water) was 121 % of control.

`COc1cc(C(CC(C)=O)c2cc3c(cc2OC(C)=O)OCO3)cc(OC)c1OC` (stereo not drawn) (tested in a mixture with another compound): the T/C is 103 % of control (endpoint: median survival time, dose: 15.0 mg/kg/injection, schedule: Q01DX005 (ip), vehicle: saline with Tween-80); 101 % of control (endpoint: median survival time, dose: 30.0 mg/kg/injection, schedule: Q01DX005 (ip), vehicle: saline with Tween-80); 105 % of control (endpoint: median survival time, dose: 43.2 mg/kg/injection, schedule: Q01DX005 (ip), vehicle: saline with Tween-80); 114 % of control (endpoint: median survival time, dose: 60.0 mg/kg/injection, schedule: Q01DX005 (ip), vehicle: saline with Tween-80); 113 % of control and 110 % of control (endpoint: median survival time, dose: 72.0 mg/kg/injection, schedule: Q01DX005 (ip), vehicle: saline with Tween-80); 162 % of control and 168 % of control (endpoint: median survival time, dose: 200.0 mg/kg/injection, schedule: Q01DX005 (ip), vehicle: saline with Tween-80). Moreover, for the setting “endpoint: median survival time, dose: 240.0 mg/kg/injection, schedule: Q01DX005 (ip), vehicle: saline with Tween-80”, the T/C was 103 % of control.

`BrC1c2cccc3cccc(c23)C1Br` (stereo not drawn): the T/C under setting [1] is 115 % of control; the T/C under setting [2] is 108 % of control; the T/C under setting [3] was 115 % of control and 106 % of control; the T/C under setting [4] was 115 % of control and 105 % of control; the T/C under setting [5] was 100 % of control and 112 % of control; the T/C under setting [6] was 110 % of control.

`COC12C(COC(N)=O)C3=C(C(=O)C(C)=C(NC4CONC4=O)C3=O)N1CC1NC12` (stereo not drawn): the T/C reads like this: (endpoint: mean survival time, dose: 1.5 mg/kg/injection, schedule: Q01DX001 (ip), vehicle: water) 97 % of control; (endpoint: mean survival time, dose: 3.0 mg/kg/injection, schedule: Q01DX001 (ip), vehicle: water) 98 % of control; (endpoint: mean survival time, dose: 6.0 mg/kg/injection, schedule: Q01DX001 (ip), vehicle: water) 95 % of control; (endpoint: mean survival time, dose: 12.0 mg/kg/injection, schedule: Q01DX001 (ip), vehicle: water) 98 % of control; (endpoint: mean survival time, dose: 24.0 mg/kg/injection, schedule: Q01DX001 (ip), vehicle: water) 97 % of control; (endpoint: mean survival time, dose: 50.0 mg/kg/injection, schedule: Q01DX001 (ip), vehicle: distilled water + Tween-80) 112 % of control. For the same molecule, the T/C (endpoint: mean survival time, dose: 100.0 mg/kg/injection, schedule: Q01DX001 (ip), vehicle: distilled water + Tween-80) was 114 % of control.

On to `C=C(Br)CNC(=O)OC`, for which the T/C runs as follows: (endpoint: mean survival time, dose: 12.5 mg/kg/injection, schedule: Q01DX009 (ip), vehicle: saline) 102 % of control; (endpoint: mean survival time, dose: 25.0 mg/kg/injection, schedule: Q01DX009 (ip), vehicle: saline) 104 % of control; (endpoint: mean survival time, dose: 50.0 mg/kg/injection, schedule: Q01DX009 (ip), vehicle: saline) 112 % of control; under setting [7], 96 % of control.

As for `Cc1ccc2c(c1)N=C(Nc1ccccc1)N=S2(C)=O` (stereo not drawn), the T/C runs as follows: under setting [1], 96 % of control and 104 % of control; under setting [2], 100 % of control and 107 % of control; under setting [3], 104 % of control; under setting [4], 90 % of control and 106 % of control; under setting [5], 101 % of control; under setting [6], 102 % of control.

Regarding `CCCCCCCCC/C=C(\CCCCCCCCCC)c1ccccc1`, the T/C is 94 % of control (endpoint: mean survival time, dose: 100.0 mg/kg/injection, schedule: Q01DX001 (ip), vehicle: saline); 94 % of control (endpoint: mean survival time, dose: 200.0 mg/kg/injection, schedule: Q01DX001 (ip), vehicle: saline); 100 % of control (endpoint: mean survival time, dose: 400.0 mg/kg/injection, schedule: Q01DX001 (ip), vehicle: saline).

Turning to `COc1ccc(NC(=S)NN)cc1`, the T/C by setting is: (endpoint: mean survival time, dose: 25.0 mg/kg/injection, schedule: Q04DX003 (ip), vehicle: saline with Tween-80) 110 % of control; (endpoint: mean survival time, dose: 50.0 mg/kg/injection, schedule: Q04DX003 (ip), vehicle: saline with Tween-80) 91 % of control; under setting [7], 87 % of control and 96 % of control; (endpoint: mean survival time, dose: 400.0 mg/kg/injection, schedule: Q04DX003 (ip), vehicle: saline with Tween-80) 107 % of control.

Take `Cn1c(=O)c2c(ncn2-c2ccncc2)n(C)c1=O`: the T/C was 93 % of control (endpoint: mean survival time, dose: 12.5 mg/kg/injection, schedule: Q01DX005 (ip), vehicle: saline with Tween-80); 98 % of control (endpoint: mean survival time, dose: 25.0 mg/kg/injection, schedule: Q01DX005 (ip), vehicle: saline with Tween-80); 96 % of control (endpoint: mean survival time, dose: 50.0 mg/kg/injection, schedule: Q01DX005 (ip), vehicle: saline with Tween-80); 104 % of control (endpoint: mean survival time, dose: 100.0 mg/kg/injection, schedule: Q01DX005 (ip), vehicle: saline with Tween-80).

On to `Cn1c(=O)sc2ccccc21`, for which the T/C (endpoint: mean survival time, dose: 100.0 mg/kg/injection, schedule: Q04DX002 (ip), vehicle: saline with Tween-80) was 111 % of control and the T/C (endpoint: mean survival time, dose: 200.0 mg/kg/injection, schedule: Q04DX002 (ip), vehicle: saline with Tween-80) was 114 % of control.

On to `O=C(O)C(Br)C(Br)c1ccccc1[N+](=O)[O-]` (stereo not drawn), for which the T/C reads like this: (endpoint: mean survival time, dose: 12.5 mg/kg/injection, schedule: Q01DX009 (ip), vehicle: other) 96 % of control; (endpoint: mean survival time, dose: 25.0 mg/kg/injection, schedule: Q01DX009 (ip), vehicle: other) 103 % of control; (endpoint: mean survival time, dose: 50.0 mg/kg/injection, schedule: Q01DX009 (ip), vehicle: other) 100 % of control; (endpoint: mean survival time, dose: 100.0 mg/kg/injection, schedule: Q01DX009 (ip), vehicle: other) 102 % of control; (endpoint: mean survival time, dose: 200.0 mg/kg/injection, schedule: Q01DX009 (ip), vehicle: other) 97 % of control.

For `CC(C)(C)NC(=O)Cc1ccccc1`, the T/C under setting [4] is 95 % of control, the T/C under setting [5] was 97 % of control and the T/C under setting [6] was 95 % of control.
